{"source": "patent US12396996B2", "about": "“Compounds, pharmaceutical compositions, and methods of their use in reversing cancer chemoresistance” (priority 2019, dated 2025);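 on Log2foldChange ALDH1A1: transcript levels measured by RNA-seq of total RNA extracted from treated cells, given as log2 change relative to untreated cells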;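 on Log2foldChange BIRC5 (survivin-1): transcript levels measured by RNA-seq of total RNA extracted from treated cells, given as log2 change relative to untreated cells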;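 on Log2foldChange CD24: transcript levels measured by RNA-seq of total RNA extracted from treated cells, given as log2 change relative to untreated cells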;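 on Log2foldChange CDH1 (E-cadherin): transcript levels measured by RNA-seq of total RNA extracted from treated cells, given as log2 change relative to untreated cells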", "key": {"[1]": {"system": "H3K9me3 in HMLE-TWIST cells", "experiment": "H3K9me3 chromatin immunoprecipitation and deep sequencing", "type": "cell-based, human", "procedure": "FIG. 11 is a meta-plot depicting the H3K9me3 peaks in HMLE-TWIST cells treated (right graph) with 0.3 μM of chaetocin for 15 hours versus untreated cells (left graph). […] The decrease in red and yellow color and an increase in blue color is consistent with chaetocin-induced inhibition of Suv39H1 and Suv39H2 activities resulting in a decrease in H3K9me3 throughout the chaetocin-treated HMLE-TWIST cells.\nChaetocin is an inhibitor of Suv39H1 and Suv39H2 enzymes, whose catalytic activities trimethylates lysine 9 of histone H3. […] Consistent with our model, we find that genes involved in cell-cell adhesion (a strong marker for epithelial cells) display a specific loss of H3K9me3 in response to chaetocin treatment (Table 6). We also find that genes involved in neural differentiation also lose H3K9me3. […] Moreover, 60 genes display a simultaneous loss of H3K9me3 and an increase in their expression in chaetocin-treated cells (Table 7)."}, "800 cancer cell lines": {"system": "800 cancer cell lines", "experiment": "Cell viability screen with GSEA of mesenchymal gene signature", "type": "cell-based", "conditions": "0.005-1.28 μM, viability several days after treatment", "procedure": "FIGS. 1D-1E are a series of scatter plots showing the results of a Gene Set Enrichment Analysis (GSEA) screen of 800 cancer cell lines for sensitivity to chaetocin applied at 9 different concentrations (0.005 μM, 0.01 μM, 0.02 μM, 0.04 μM, 0.08 μM, 0.16 μM, 0.32 μM, 0.64 μM, and 1.28 μM) in culture. Cell viability was measured several days after chaetocin treatment. FIG. 1D is a scatter plot showing the chaetocin sensitivity of all tested cells lines: mesenchymal gene expression signature (SNAIL-induced early-repressed gene set) (Y-axis) is plotted against area under the curve (AUC) calculated by measuring percent cell death caused by increasing doses of chaetocin (X-axis). Mesenchymal gene expression signature (SNAIL-induced early-repressed gene set) used in the Y-axis was based on the Javaid et al 2013 paper.\nTo determine whether sensitivity of cancer cells to chaetocin correlates with mesenchymal cell phenotype, the sensitivity or resistance of 800 cancer cell lines to chaetocin was assayed by the group of Cyril Benes treating each cell line with chaetocin at concentrations of 0.005 μM, 0.01 μM, 0.02 μM, 0.04 μM, 0.08 μM, 0.16 μM, 0.32 μM, 0.64 μM, and 1.28 μM. Cell viability was measured several days following treatment. […]"}, "[2]": {"system": "786-0, A549 and HMLE-TWIST cells", "experiment": "Order of chaetocin and chemotherapy, caspase-3 cleavage", "type": "cell-based, human", "procedure": "FIGS. 4D-4E show a set of bar plots and schematics of experiments in which chaetocin (80 nM) was administered for 15 hours either alone, two days before (FIG. 4E) or after a 2 day treatment with a chemotherapeutic drug (FIG. 4D; 300 nM cisplatin or 10 nM Doxorubicin) to 786-0 clear cell renal carcinoma cells, A549 lung cancer cells, and HMLE-TWIST (E-Twist) breast cancer cells. Cell death was assayed with cleaved caspase 3 fluorescent intensity. These experiments were designed to test the prediction of an epigenetic model for chaetocin-mediated reversal of chemotherapy resistance, namely that chaetocin must be added transiently for a short duration (15 hours) 2 days prior to chemotherapy to sensitize the cells to treatment. If the order was reversed (FIG. 4D), there should be no effect. The results of FIGS. 4A-4E indicate that chaetocin primes cancer cells for apoptotic death by chemotherapy through epigenetic reversal of chemotherapy resistance.\nIn a separate set of experiments, to test the generality of chaetocin in reversing the chemotherapy resistance of mesenchymal, TIC-rich cancers, well-characterized mesenchymal TIC-rich cell lines from ccRCC 786-0 and lung cancer cells (A549) were used along with HMLE-TWIST cells described above. […]"}, "Suv39H1 and Suv39H2": {"system": "Suv39H1 and Suv39H2", "conditions": "cited from earlier work"}, "HMLE-TWIST cells": {"system": "HMLE-TWIST cells", "conditions": "0.3 μM, 15 hours, versus untreated", "experimental": "To determine whether the transcriptional changes associated with chaetocin treatment support this apparent change in cell state (reversal of mesenchymal fate), RNA-seq experiments were performed on cells treated for 15 hours with 0.3 μM of chaetocin after which total RNA was extracted and subjected to deep sequencing."}, "[3]": {"conditions": "0.3 uM for 15 hours, Gene Ontology Biological Process"}}, "data": [{"smiles": "CN1C(=O)[C@@]23C[C@]4([C@]56C[C@@]78SS[C@](CO)(C(=O)N7[C@H]5Nc5ccccc56)N(C)C8=O)c5ccccc5N[C@@H]4N2C(=O)[C@@]1(CO)SS3", "note": "[chaetocin]", "values": [{"measurement": "change in H3K9me3 profile", "setting": "[1]; 0.3 μM for 15 hours versus untreated", "value": "specific loss of H3K9me3 over epithelial genes"}, {"measurement": "number of genes with simultaneous loss of H3K9me3 and increase in expression", "setting": "[1]; 0.3 μM for 15 hours, ChIP-seq with RNA-seq", "value": 60, "unit": "genes"}, {"measurement": "Fold Enrichment of cell-cell adhesion among genes which lose H3K9me3", "setting": "[1]; [3]", "value": 2.49}, {"measurement": "Fold Enrichment of neuron differentiation among genes which lose H3K9me3", "setting": "[1]; [3]", "value": 2.12}, {"measurement": "sensitivity (AUC of percent cell death) versus mesenchymal gene signature", "setting": "800 cancer cell lines", "value": "cells with mesenchymal transcriptional signature are sensitive to chaetocin"}, {"measurement": "sensitization to chemotherapy (caspase-3 cleavage)", "setting": "[2]; 80 nM for 15 hours, 2 days before cisplatin or doxorubicin", "value": "sensitizes them to chemotherapeutic killing"}, {"measurement": "sensitization to chemotherapy (caspase-3 cleavage)", "setting": "[2]; order reversed: chaetocin after chemotherapy", "value": "did not produce similar chemotherapeutic killing of cells"}, {"measurement": "inhibitor specificity", "setting": "Suv39H1 and Suv39H2", "value": "specific inhibitor of Suv39H1 and Suv39H2 heterochromatin proteins"}, {"measurement": "Log2foldChange ALDH1A1", "setting": "HMLE-TWIST cells", "value": "−2.01"}, {"measurement": "Log2foldChange BIRC5 (survivin-1)", "setting": "HMLE-TWIST cells", "value": 0.491}, {"measurement": "Log2foldChange CD24", "setting": "HMLE-TWIST cells", "value": "−0.912"}, {"measurement": "Log2foldChange CDH1 (E-cadherin)", "setting": "HMLE-TWIST cells", "value": 4.25}, {"measurement": "Log2foldChange CLDN2", "setting": "HMLE-TWIST cells", "value": 6.00}, {"measurement": "Log2foldChange CLDN4", "setting": "HMLE-TWIST cells", "value": 3.68}, {"measurement": "Log2foldChange CLDN6", "setting": "HMLE-TWIST cells", "value": 7.30}, {"measurement": "Log2foldChange CLDN9", "setting": "HMLE-TWIST cells", "value": 4.59}, {"measurement": "Log2foldChange CLDN16", "setting": "HMLE-TWIST cells", "value": 2.77}, {"measurement": "Log2foldChange CLDN23", "setting": "HMLE-TWIST cells", "value": 1.18}, {"measurement": "Log2foldChange COL2A1", "setting": "HMLE-TWIST cells", "value": 4.34}, {"measurement": "Log2foldChange CRB1", "setting": "HMLE-TWIST cells", "value": 9.40}, {"measurement": "Log2foldChange CST6", "setting": "HMLE-TWIST cells", "value": 2.12}, {"measurement": "Log2foldChange Errb2", "setting": "HMLE-TWIST cells", "value": "−0.829"}, {"measurement": "Log2foldChange GJA1", "setting": "HMLE-TWIST cells", "value": "−0.627"}, {"measurement": "Log2foldChange GLI-2", "setting": "HMLE-TWIST cells", "value": "−0.941"}, {"measurement": "Log2foldChange KRT7", "setting": "HMLE-TWIST cells", "value": 1.59}, {"measurement": "Log2foldChange KRT8", "setting": "HMLE-TWIST cells", "value": 1.30}, {"measurement": "Log2foldChange KRT18", "setting": "HMLE-TWIST cells", "value": 1.95}, {"measurement": "Log2foldChange KRT19", "setting": "HMLE-TWIST cells", "value": 4.46}, {"measurement": "Log2foldChange KRT34", "setting": "HMLE-TWIST cells", "value": 5.49}, {"measurement": "Log2foldChange KRT80", "setting": "HMLE-TWIST cells", "value": 1.24}, {"measurement": "Log2foldChange KRT81", "setting": "HMLE-TWIST cells", "value": 1.47}, {"measurement": "Log2foldChange KRT86", "setting": "HMLE-TWIST cells", "value": 3.10}, {"measurement": "Log2foldChange LAMB1", "setting": "HMLE-TWIST cells", "value": "−1.05"}, {"measurement": "Log2foldChange MMP14", "setting": "HMLE-TWIST cells", "value": "−1.14"}, {"measurement": "Log2foldChange NRF-2", "setting": "HMLE-TWIST cells", "value": "−0.862"}, {"measurement": "Log2foldChange Nanog", "setting": "HMLE-TWIST cells", "value": "−2.21"}, {"measurement": "Log2foldChange O ct4", "setting": "HMLE-TWIST cells", "value": "−1.76"}, {"measurement": "Log2foldChange PTEN", "setting": "HMLE-TWIST cells", "value": "−0.780"}, {"measurement": "Log2foldChange SNAI2", "setting": "HMLE-TWIST cells", "value": "−0.623"}, {"measurement": "Log2foldChange TWIST1", "setting": "HMLE-TWIST cells", "value": "−0.549"}, {"measurement": "Log2foldChange WISP1", "setting": "HMLE-TWIST cells", "value": "−1.06"}, {"measurement": "Log2foldChange ZEB1", "setting": "HMLE-TWIST cells", "value": "−0.666"}]}]}
